For the data set, the target named is hERG (Homo sapiens, UniProt Q12809). The data set can be described thus: Patch clamp assay (hERG tail currents, whole-cell). For orientation: Patch clamp records ionic current or voltage across a cell membrane.

Here are results for 19 compounds from patent publication US20240400564A1 (Syndax Pharmaceuticals, Inc, priority 2021, published 2024).

Structures are written as SMILES.

Chain of hERG (Q12809 whole entry): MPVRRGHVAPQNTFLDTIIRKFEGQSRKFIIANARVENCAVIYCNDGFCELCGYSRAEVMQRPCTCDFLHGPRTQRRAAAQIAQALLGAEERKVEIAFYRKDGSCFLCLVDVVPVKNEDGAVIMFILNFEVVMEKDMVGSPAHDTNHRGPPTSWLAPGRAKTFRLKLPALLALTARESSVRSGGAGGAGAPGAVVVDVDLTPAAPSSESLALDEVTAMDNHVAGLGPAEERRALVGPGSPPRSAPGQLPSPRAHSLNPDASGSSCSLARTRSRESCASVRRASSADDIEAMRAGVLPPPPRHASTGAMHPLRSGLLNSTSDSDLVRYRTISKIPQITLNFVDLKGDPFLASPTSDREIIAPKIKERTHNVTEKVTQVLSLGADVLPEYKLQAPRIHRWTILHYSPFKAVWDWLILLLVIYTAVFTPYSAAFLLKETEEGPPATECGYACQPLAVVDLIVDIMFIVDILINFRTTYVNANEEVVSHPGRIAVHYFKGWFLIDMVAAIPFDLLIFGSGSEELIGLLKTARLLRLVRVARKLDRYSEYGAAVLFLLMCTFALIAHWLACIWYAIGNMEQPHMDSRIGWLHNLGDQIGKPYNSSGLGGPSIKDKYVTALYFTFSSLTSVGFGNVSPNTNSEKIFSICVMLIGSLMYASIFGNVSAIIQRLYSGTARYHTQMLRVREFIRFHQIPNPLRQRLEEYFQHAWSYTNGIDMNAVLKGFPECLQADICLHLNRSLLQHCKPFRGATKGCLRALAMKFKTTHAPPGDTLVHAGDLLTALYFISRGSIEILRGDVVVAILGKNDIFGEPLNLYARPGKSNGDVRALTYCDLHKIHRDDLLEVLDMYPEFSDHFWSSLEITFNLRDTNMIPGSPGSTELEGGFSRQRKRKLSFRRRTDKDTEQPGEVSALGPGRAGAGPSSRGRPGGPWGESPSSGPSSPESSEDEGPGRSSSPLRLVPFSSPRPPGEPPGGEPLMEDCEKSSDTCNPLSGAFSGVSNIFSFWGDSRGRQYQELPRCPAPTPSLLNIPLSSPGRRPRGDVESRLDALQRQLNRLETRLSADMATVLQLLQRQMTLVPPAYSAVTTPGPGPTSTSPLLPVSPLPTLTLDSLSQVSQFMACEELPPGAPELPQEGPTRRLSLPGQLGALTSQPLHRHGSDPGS

For `CCNS(=O)(=O)N[C@H]1CC[C@H](CN2CCC3(CC2)CN(c2ncnnc2Oc2ccc(F)cc2C(=O)N(CC(F)(F)F)C(C)C)C3)OC1` (stereo in doubt) [Example 193, 2-((5-(7-(((2R,5S)-5-((N-Ethylsulfamoyl)amino)tetrahydro-2H-pyran-2-yl)methyl)-2,7-diazaspiro[3.5]nonan-2-yl)-1,2,4-triazin-6-yl)oxy)-5-fluoro-N-isopropyl-N-(2,2,2-trifluoroethyl)benzamide], the “hERG % Remaining” value (30 μM compound) is listed as “+++ (≥66%)”.
With `CCN(C(=O)c1cc(F)ccc1Oc1cncnc1N1CC2(CCN(C[C@@H]3CC[C@@H](NC(=O)OC(C)(C)C)CO3)CC2)C1)C(C)C` [Example 11, tert-Butyl ((3R,6S)-6-((2-(5-(2-(ethyl(isopropyl)carbamoyl)-4-fluorophenoxy)pyrimidin-4-yl)-2,7-diazaspiro[3.5]nonan-7-yl)methyl)tetrahydro-2H-pyran-3-yl)carbamate], the “hERG % Remaining” value is recorded as “+ (<33%)” (10 μM compound) and “+ (<33%)” (30 μM compound).
`CCN(C(=O)c1cc(F)ccc1Oc1cncnc1N1CC2(CCN(C[C@@H]3CC[C@@H](NC(=O)NCC(F)(F)F)CO3)CC2)C1)C(C)C` [Example 37, N-Ethyl-5-fluoro-N-isopropyl-2-((4-(7-(((2S,5R)-5-(3-(2,2,2-trifluoroethyl)ureido)tetrahydro-2H-pyran-2-yl)methyl)-2,7-diazaspiro[3.5]nonan-2-yl)pyrimidin-5-yl)oxy)benzamide]: the “hERG % Remaining” value is on record as “+ (<33%)” (10 μM compound) and “+ (<33%)” (30 μM compound).
With `CCN(C(=O)c1cc(F)ccc1Oc1cncnc1N1CC2(CCN(C[C@@H]3CC[C@@H](NS(=O)(=O)c4ccccn4)CO3)CC2)C1)C(C)C` [Example 58, N-ethyl-5-fluoro-N-isopropyl-2-((4-(7-(((2S,5R)-5-(pyridine-2-sulfonamido)tetrahydro-2H-pyran-2-yl)methyl)-2,7-diazaspiro[3.5]nonan-2-yl)pyrimidin-5-yl)oxy)benzamide], the “hERG % Remaining” value is “+++ (≥66%)” (10 μM compound); “++ (233% and ≤66%)” (30 μM compound).
As to `CCN(C(=O)c1cc(F)ccc1Oc1cncnc1N1CC2(CCN(C[C@@H]3CC[C@@H](NS(=O)(=O)c4ccccc4Cl)CO3)CC2)C1)C(C)C` [Example 59, 2-((4-(7-(((2S,5R)-5-((2-Chlorophenyl)sulfonamido)tetrahydro-2H-pyran-2-yl)methyl)-2,7-diazaspiro[3.5]nonan-2-yl)pyrimidin-5-yl)oxy)-N-ethyl-5-fluoro-N-isopropylbenzamide], the “hERG % Remaining” value is, setting by setting: (10 μM compound) “+ (<33%)”; (30 μM compound) “+ (<33%)”.
In the case of `CCN(C(=O)c1cc(F)ccc1Oc1cncnc1N1CC2(CCN(C[C@@H]3CC[C@@H](NS(=O)(=O)c4ccc(OC)cc4)CO3)CC2)C1)C(C)C` [Example 62, N-Ethyl-5-fluoro-N-isopropyl-2-((4-(7-(((2S,5R)-5-((4-methoxyphenyl)sulfonamido)tetrahydro-2H-pyran-2-yl)methyl)-2,7-diazaspiro[3.5]nonan-2-yl)pyrimidin-5-yl)oxy)benzamide], the “hERG % Remaining” value is on record as “+ (<33%)” (10 μM compound) and “+ (<33%)” (30 μM compound).
Regarding `CCN(C(=O)c1cc(F)ccc1Oc1cncnc1N1CC2(CCN(C[C@@H]3CC[C@@H](NS(=O)(=O)c4cccnc4)CO3)CC2)C1)C(C)C` [Example 63, N-Ethyl-5-fluoro-N-isopropyl-2-((4-(7-(((2S,5R)-5-(pyridine-3-sulfonamido)tetrahydro-2H-pyran-2-yl)methyl)-2,7-diazaspiro[3.5]nonan-2-yl)pyrimidin-5-yl)oxy)benzamide], the “hERG % Remaining” value by setting is: (10 μM compound) “+++ (≥66%)”; (30 μM compound) “++ (233% and ≤66%)”.
`CCN(C(=O)c1cc(F)ccc1Oc1cncnc1N1CC2(CCN(C[C@@H]3CC[C@@H](NS(=O)(=O)N4CCOCC4)CO3)CC2)C1)C(C)C` [Example 64, N-Ethyl-5-fluoro-N-isopropyl-2-((4-(7-(((2S,5R)-5-(morpholine-4-sulfonamido)tetrahydro-2H-pyran-2-yl)methyl)-2,7-diazaspiro[3.5]nonan-2-yl)pyrimidin-5-yl)oxy)benzamide]: the “hERG % Remaining” value is, setting by setting: (10 μM compound) “+++ (≥66%)”; (30 μM compound) “++ (233% and ≤66%)”.
For the compound `CCN(C(=O)c1cc(F)ccc1Oc1cncnc1N1CC2(CCN(C[C@@H]3CC[C@@H](NS(=O)(=O)c4ccccc4OC)CO3)CC2)C1)C(C)C` [Example 65, N-Ethyl-5-fluoro-N-isopropyl-2-((4-(7-(((2S,5R)-5-((2-methoxyphenyl)sulfonamido)tetrahydro-2H-pyran-2-yl)methyl)-2,7-diazaspiro[3.5]nonan-2-yl)pyrimidin-5-yl)oxy)benzamide], the “hERG % Remaining” value is “++ (233% and ≤66%)” (10 μM compound); “+ (<33%)” (30 μM compound).
In the case of `CCN(C(=O)c1cc(F)ccc1Oc1cncnc1N1CC2(CCN(C[C@@H]3CC[C@@H](NS(=O)(=O)c4cccc(OC)c4)CO3)CC2)C1)C(C)C` [Example 66, N-Ethyl-5-fluoro-N-isopropyl-2-((4-(7-(((2S,5R)-5-((3-methoxyphenyl)sulfonamido)tetrahydro-2H-pyran-2-yl)methyl)-2,7-diazaspiro[3.5]nonan-2-yl)pyrimidin-5-yl)oxy)benzamide], the “hERG % Remaining” value is “+ (<33%)” (10 μM compound) and “+ (<33%)” (30 μM compound).
As for `CCN(C(=O)c1cc(F)ccc1Oc1cncnc1N1CC2(CCN(C[C@@H]3CC[C@@H](NS(=O)(=O)N4CCC4)CO3)CC2)C1)C(C)C` [Example 69, 2-((4-(7-(((2S,5R)-5-(Azetidine-1-sulfonamido)tetrahydro-2H-pyran-2-yl)methyl)-2,7-diazaspiro[3.5]nonan-2-yl)pyrimidin-5-yl)oxy)-N-ethyl-5-fluoro-N-isopropylbenzamide], the “hERG % Remaining” value by setting is: (10 μM compound) “+++ (≥66%)”; (30 μM compound) “++ (233% and ≤66%)”.
On to `CCN(C(=O)c1cc(F)ccc1Oc1cncnc1N1CC2(CCN(C[C@@H]3CC[C@@H](NS(=O)(=O)NC)CO3)CC2)C1)C(C)C` [Example 76, N-Ethyl-5-fluoro-N-isopropyl-2-((4-(7-(((2S,5R)-5-((N-methylsulfamoyl)amino)tetrahydro-2H-pyran-2-yl)methyl)-2,7-diazaspiro[3.5]nonan-2-yl)pyrimidin-5-yl)oxy)benzamide], for which the “hERG % Remaining” value was “+++ (≥66%)” (10 μM compound) and “+++ (≥66%)” (30 μM compound).
On to `CC(C)N(C(=O)c1cc(F)ccc1Oc1cncnc1N1CC2(CCN(C[C@@H]3CC[C@@H](NS(=O)(=O)N4CCOCC4)CO3)CC2)C1)C(C)C` [Example 78, 5-Fluoro-N,N-diisopropyl-2-((4-(7-(((2S,5R)-5-(morpholine-4-sulfonamido)tetrahydro-2H-pyran-2-yl)methyl)-2,7-diazaspiro[3.5]nonan-2-yl)pyrimidin-5-yl)oxy)benzamide], for which the “hERG % Remaining” value is on record as “+++ (≥66%)” (10 μM compound) and “+++ (≥66%)” (30 μM compound).
In the case of `CC(C)N(C(=O)c1cc(F)ccc1Oc1cncnc1N1CC2(CCN(C[C@@H]3CC[C@@H](NS(=O)(=O)N4CCC4)CO3)CC2)C1)C(C)C` [Example 88, 2-((4-(7-(((2S,5R)-5-(Azetidine-1-sulfonamido)tetrahydro-2H-pyran-2-yl)methyl)-2,7-diazaspiro[3.5]nonan-2-yl)pyrimidin-5-yl)oxy)-5-fluoro-N,N-diisopropylbenzamide], the “hERG % Remaining” value (30 μM compound) is given as “+++ (≥66%)”.
`CC(C)N(C(=O)c1cc(F)ccc1Oc1cncnc1N1CC2(CCN(C[C@@H]3CC[C@@H](NS(=O)(=O)N(C)C(C)C)CO3)CC2)C1)C(C)C` [Example 89, 5-Fluoro-N,N-diisopropyl-2-((4-(7-(((2S,5R)-5-((N-isopropyl-N-methylsulfamoyl)amino)tetrahydro-2H-pyran-2-yl)methyl)-2,7-diazaspiro[3.5]nonan-2-yl)pyrimidin-5-yl)oxy)benzamide]: the “hERG % Remaining” value (30 μM compound) is “++ (233% and ≤66%)”.
For the compound `CC(C)N(C(=O)c1cc(F)ccc1Oc1cncnc1N1CC2(CCN(C[C@@H]3CC[C@@H](NS(N)(=O)=O)CO3)CC2)C1)C(C)C` [Example 90, 5-Fluoro-N,N-diisopropyl-2-((4-(7-(((2S,5R)-5-(sulfamoylamino)tetrahydro-2H-pyran-2-yl)methyl)-2,7-diazaspiro[3.5]nonan-2-yl)pyrimidin-5-yl)oxy)benzamide], the “hERG % Remaining” value was “+++ (≥66%)” (10 μM compound) and “+++ (≥66%)” (30 μM compound).
Take `CC(C)N(C(=O)c1cc(F)ccc1Oc1cncnc1N1CC2(CCN(C[C@@H]3CC[C@@H](NS(=O)(=O)N(C)C)CO3)CC2)C1)C1CC1` [Example 93, N-Cyclopropyl-2-((4-(7-(((2S,5R)-5-((N,N-dimethylsulfamoyl)amino)tetrahydro-2H-pyran-2-yl)methyl)-2,7-diazaspiro[3.5]nonan-2-yl)pyrimidin-5-yl)oxy)-5-fluoro-N-isopropylbenzamide]: the “hERG % Remaining” value by setting is: (1 μM compound) “+++ (≥66%)”; (3 μM compound) “+++ (≥66%)”; (10 μM compound) “+++ (≥66%)”; (30 μM compound) “++ (233% and ≤66%)”; (100 μM compound) “+ (<33%)”.
Take `CC(C)N(CC(F)F)C(=O)c1cc(F)ccc1Oc1cncnc1N1CC2(CCN(C[C@@H]3CC[C@@H](NS(=O)(=O)N4CCOCC4)CO3)CC2)C1` [Example 94, N-(2,2-Difluoroethyl)-5-fluoro-N-isopropyl-2-((4-(7-(((2S,5R)-5-(morpholine-4-sulfonamido)tetrahydro-2H-pyran-2-yl)methyl)-2,7-diazaspiro[3.5]nonan-2-yl)pyrimidin-5-yl)oxy)benzamide]: the “hERG % Remaining” value reads like this: (10 μM compound) “+++ (≥66%)”; (30 μM compound) “++ (233% and ≤66%)”.
For `CC(C)N(CC(F)F)C(=O)c1cc(F)ccc1Oc1cncnc1N1CC2(CCN(C[C@@H]3CC[C@@H](NS(=O)(=O)N(C)C)CO3)CC2)C1` [Example 95, N-(2,2-Difluoroethyl)-2-((4-(7-(((2S,5R)-5-((N,N-dimethylsulfamoyl)amino)tetrahydro-2H-pyran-2-yl)methyl)-2,7-diazaspiro[3.5]nonan-2-yl)pyrimidin-5-yl)oxy)-5-fluoro-N-isopropylbenzamide], the “hERG % Remaining” value (10 μM compound) is listed as “+++ (≥66%)”; the “hERG % Remaining” value (30 μM compound) is “++ (233% and ≤66%)”. Moreover, the “hERG IC50 (μM)” value (hERG stably transfected HEK 293 cells) is “+ (<25 PM)”.
